biological target: CVF-Bb complex (Homo sapiens (Human), UniProt P00751); test: biochemical; format: biochemical; settings: not given
Protocol: CVF-Bb complex, prepared from purified cobra venom factor, (3 nM) is incubated with a compound of the disclosure at various concentrations for 10 minutes at room temperature in PBS (pH 7.4) containing 10 mM MgCl2 and 0.05% (w/v) CHAPS. Human Complement C3 substrate is added to a final concentration of 1 μM. After 1 hour incubation at room temperature, the enzyme reaction is stopped by addition of a cocktail of concentrated pan-protease inhibitors. The product of the reaction, C3a, is quantified by means of an enzyme-linked-immunosorbent assay and/or denaturing gel electrophoresis (SDS-PAGE). IC50 values are calculated from percentage of inhibition of CVF-Bb activity as a function of test compound concentration.

Compound | IC50
COc1cc(C)c2[nH]ccc2c1CN1CC[C@H]2C[C@H]1c1ccc(C(=O)O)cc1/C=C/CCCCCCO2 [Ex. 38, (1^2R,1^4R,E)-11-((5-methoxy-7-methyl-1H-indol-4-yl)methyl)-1^1-oxa-1(2,4)-piperidina-2(1,2)-benzenacycloundecaphan-3-ene-2^4-carboxylic acid] | 160 nM
CCO[C@H]1CCN(Cc2c(OC)cc(C)c3[nH]ccc23)[C@H](c2ccc(C(=O)O)cc2OC)C1 [Ex. 3, 4-((2S,4S)-4-ethoxy-1-((5-methoxy-7-methyl-1H-indol-4-yl)methyl)piperidin-2-yl)-3-methoxybenzoic acid] | 263 nM
CCO[C@H]1CCN(Cc2c(OC)cc(C)c3[nH]ccc23)[C@H](c2ccc(C(=O)O)cc2OCCNC(C)=O)C1 [Ex. 6, 3-(2-acetamidoethoxy)-4-((2S,4S)-4-ethoxy-1-((5-methoxy-7-methyl-1H-indol-4-yl)methyl)piperidin-2-yl)benzoic acid] | 313 nM
CCO[C@H]1CCN(Cc2c(OC)cc(C)c3[nH]ccc23)[C@H](c2ccc(C(=O)NS(=O)(=O)CC)cc2)C1 [Ex. 44, 4-((2S,4S)-4-ethoxy-1-((5-methoxy-7-methyl-1H-indol-4-yl)methyl)piperidin-2-yl)-N-(ethylsulfonyl)benzamide] | 138 nM
CCO[C@H]1CCN(Cc2c(OC)cc(C)c3[nH]ccc23)[C@H](c2ccc(C(=O)NS(=O)(=O)CCNC(C)=O)cc2)C1 [Compar. Ex. 2, N-((2-acetamidoethyl)sulfonyl)-4-((2S,4S)-4-ethoxy-1-((5-methoxy-7-methyl-1H-indol-4-yl)methyl)piperidin-2-yl)benzamide, reference compound] | 395 nM
CCO[C@@H]1CCN(Cc2c(OC)cc(C)c3[nH]ccc23)[C@H](c2ccc(C(=O)O)cc2OC)C1 [Ex. 4, 4-((2S,4R)-4-ethoxy-1-((5-methoxy-7-methyl-1H-indol-4-yl)methyl)piperidin-2-yl)-3-methoxybenzoic acid] | 3550 nM
COc1cc(C)c2[nH]ccc2c1CN1CC[C@H]2C[C@H]1c1ccc(C(=O)O)cc1/C=C\CCCCCO2 [Ex. 37, (1^2R,1^4R,Z)-1^1-((5-methoxy-7-methyl-1H-indol-4-yl)methyl)-10-oxa-1(2,4)-piperidina-2(1,2)-benzenacyclodecaphan-3-ene-2^4-carboxylic acid] | 263 nM
Cc1cc2c(c3cc[nH]c13)CN1CC[C@@H](C[C@H]1c1ccc(C(=O)O)cc1)OCCCCCCCO2 [Ex. 25, 4-((3^2R,3^4R)-1^7-methyl-1^1H-4,12-dioxa-1(4,5)-indola-3(1,4)-piperidinacyclododecaphane-3^2-yl)benzoic acid] | > 10000 nM
COc1cc(C)c2[nH]ccc2c1CN1CC[C@H]2C[C@H]1c1ccc(C(=O)NS(=O)(=O)C3(C)CC3)cc1OCCCCCCO2 [Ex. 46] | 311 nM
Cc1cc2c(c3cc[nH]c13)CN1CC[C@@H](C[C@H]1c1ccc(C(=O)O)cc1)OCCCCCCCCO2 [Ex. 35, 4-((3^2R,3^4R)-1^7-methyl-11H-4,13-dioxa-1(4,5)-indola-3(1,4)-piperidinacyclotridecaphane-3^2-yl)benzoic acid] | > 10000 nM

same assay, conditions: inhibition of CVF-Bb activity (3 nM CVF-Bb, Human Complement C3 substrate 1 μM, C3a quantified), PBS pH 7.4; read-out: IC50

Compound | IC50
COc1cc(C)c2[nH]ccc2c1CN1CC[C@H]2C[C@H]1c1ccc(C(=O)NS(C)(=O)=O)c3ccc(cc13)OCCC/C=C/CO2 [Ex. 54, (1^2S,1^4S,E)-1^1-((5-methoxy-7-methyl-1H-indol-4-yl)methyl)-N-(methylsulfonyl)-3,10-dioxa-1(2,4)-piperidina-2(1,7)-naphthalenacyclodecaphan-7-ene-2^4-carboxamide] | 303 nM

same assay, conditions: read-out: IC50

Compound | IC50
CCS(=O)(=O)NC(=O)c1ccc2c(c1)OCCCCCO[C@H]1CCN(Cc3c(OC)cc(C)c4[nH]ccc34)[C@H]2C1 [Ex. 59, (1^2S,1^4S)—N-(ethylsulfonyl)-1^1-((5-methoxy-7-methyl-1H-indol-4-yl)methyl)-3,9-dioxa-1(2,4)-piperidina-2(1,2)-benzenacyclononaphane-2^4-carboxamide] | 244 nM
COc1cc(C)c2[nH]ccc2c1CN1CC[C@H]2C[C@H]1c1ccc(C(=O)NS(C)(=O)=O)cc1CCCCCCCCO2 [Ex. 65, (1^2S,1^4S)-1^1-((5-methoxy-7-methyl-1H-indol-4-yl)methyl)-N-(methylsulfonyl)-11-oxa-1(2,4)-piperidina-2(1,2)-benzenacycloundecaphane-2^4-carboxamide] | 139 nM
COc1cc(C)c2[nH]ccc2c1CN1CC[C@H]2C[C@H]1c1ccc(C(=O)NS(=O)(=O)C3CC3)cc1OCCCCCCO2 [Ex. 50, (12S,14S)—N-(cyclopropylsulfonyl)-11-((5-methoxy-7-methyl-1H-indol-4-yl)methyl)-3,10-dioxa-1(2,4)-piperidina-2(1,2)-benzenacyclodecaphane-24-carboxamide] | > 10000 nM
COc1cc(C)c2c(ccn2C(=O)OC(C)(C)C)c1CN1CC[C@@H]2C[C@@H]1c1ccc(C(=O)O)c3ccc(cc13)OCCC/C=C/CO2 [Ex. 51, (1^2R,1^4R,E)-1^1-((1-(tert-butoxycarbonyl)-5-methoxy-7-methyl-1H-indol-4-yl)methyl)-3,10-dioxa-1(2,4)-piperidina-2(1,7)-naphthalenacyclodecaphan-7-ene-2^4-carboxylic acid] | > 10000 nM
COc1cc(C)c2[nH]ccc2c1CN1CC[C@H]2C[C@H]1c1ccc(-c3nnn[nH]3)cc1OCCCCCCO2 [Ex. 74, (1^2S,1^4S)-1^1-((5-methoxy-7-methyl-1H-indol-4-yl)methyl)-2^4-(1H-tetrazol-5-yl)-3,10-dioxa-1(2,4)-piperidina-2(1,2)-benzenacyclodecaphane] | 1250 nM
(1^2S,1^4S,E)-1^1-((5-methoxy-7-methyl-1H-indol-4-yl)methyl)-3,10-dioxa-1(2,4)-piperidina-2(1,7)-naphthalenacyclodecaphan-7-ene-2^4-carboxylic acid [Ex. 53] | > 10000 nM
COc1cc(C)c2[nH]ccc2c1CN1CC[C@H]2C[C@H]1c1ccc(C(=O)NS(=O)(=O)C3(C)CC3)cc1OCCCCCO2 [Ex. 67, (1^2S,1^4S)-1^1-((5-methoxy-7-methyl-1H-indol-4-yl)methyl)-N-((1-methylcyclopropyl)sulfonyl)-3,9-dioxa-1(2,4)-piperidina-2(1,2)-benzenacyclononaphane-2^4-carboxamide] | 330 nM
COc1cc(C)c2[nH]ccc2c1CN1CC[C@H]2C[C@H]1c1ccc(C(=O)NS(C)(=O)=O)cc1/C=C/CCCCCO2 [Ex. 69, (1^2S,1^4S,E)-1^1-((5-methoxy-7-methyl-1H-indol-4-yl)methyl)-N-(methylsulfonyl)-10-oxa-1(2,4)-piperidina-2(1,2)-benzenacyclodecaphan-3-ene-2^4-carboxamide] | 581 nM
COc1cc(C)c2[nH]ccc2c1CN1CC[C@H]2C[C@H]1c1ccc(C(=O)NS(=O)(=O)C3CCCC3)cc1OCCCCCCO2 [Ex. 62, (1^2S,1^4S)—N-(cyclopentylsulfonyl)-1^1-((5-methoxy-7-methyl-1H-indol-4-yl)methyl)-3,10-dioxa-1(2,4)-piperidina-2(1,2)-benzenacyclodecaphane-2^4-carboxamide] | 293 nM
COc1cc(C)c2[nH]ccc2c1CN1CC[C@H]2C[C@H]1c1ccc(C(=O)O)cc1OCCn1cc(nn1)CO2 [Ex. 12, (2^2S,2^4S,Z)-2^1-((5-methoxy-7-methyl-1H-indol-4-yl)methyl)-5′H-3,8-dioxa-2(2,4)-piperidina-5(4,1)-triazola-1(1,2)-benzenacyclooctaphane-1^4-carboxylic acid] | 280 nM
(1^2S,1^4S)-N-(ethylsulfonyl)-1^1-((5-methoxy-7- methyl-1H-indol-4-yl)methyl)-3,10-dioxa- 1(2,4)-piperidina-2(1,2)- benzenacyclodecaphane-2^4-carboxamide [Ex. 45] | 396 nM
COc1cc(C)c2[nH]ccc2c1CN1CC[C@H]2C[C@H]1c1ccc(C(=O)NS(C)(=O)=O)c3ccc(cc13)OCCCCCCO2 [Ex. 56, (1^2S,1^4S)-1^1-((5-methoxy-7-methyl-1H-indol-4-yl)methyl)-N-(methylsulfonyl)-3,10-dioxa-1(2,4)-piperidina-2(1,7)-naphthalenacyclodecaphane-2^4-carboxamide] | 375 nM
COc1cc(C)c2[nH]ccc2c1CN1CC[C@H]2C[C@H]1c1ccc(C(=O)O)cc1OCCCCCO2 [Ex. 8, (1^2S,1^4S)_1^1-((5-methoxy-7-methyl-1H-indol-4-yl)methyl)-3,9-dioxa-1(2,4)-piperidina-2(1,2)-benzenacyclononaphane-2^4-carboxylic acid] | 397 nM
COc1cc(C)c2[nH]ccc2c1CN1CC[C@H]2C[C@H]1c1ccc(C(=O)O)cc1/C=C/CCCCCCCO2 [Ex. 64, (1^2S,1^4S,E)-1^1-((5-methoxy-7-methyl-1H-indol-4-yl)methyl)-12-oxa-1(2,4)-piperidina-2(1,2)-benzenacyclododecaphan-3-ene-2^4-carboxylic acid] | 127 nM
COc1cc(C)c2[nH]ccc2c1CN1CC[C@H]2C[C@H]1c1ccc(C(=O)NS(=O)(=O)C3CCCC3)cc1OCCCCCO2 [Ex. 61, (1^2S,1^4S)—N-(cyclopentylsulfonyl)-1^1-((5-methoxy-7-methyl-1H-indol-4-yl)methyl)-3,9-dioxa-1(2,4)-piperidina-2(1,2)-benzenacyclononaphane-2^4-carboxamide] | 331 nM
COc1cc(C)c2[nH]ccc2c1CN1CC[C@@H]2CCCCCCCOc3cc(C(=O)O)ccc3[C@@H]1C2 [Ex. 77, (1^2S,1^4S)-1^1-((5-methoxy-7-methyl-1H-indol-4-yl)methyl)-3-oxa-1(2,4)-piperidina-2(1,2)-benzenacyclodecaphane-2^4-carboxylic acid] | 85.6 nM

Source: patent publication US20240182503A1, “MACROCYCLE COMPLEMENT FACTOR B INHIBITORS” (priority 2021, published 2024)
